Results on 21 compounds are retold here after ChEMBL document CHEMBL5579841, “Structure-based development of novel substrate-type G9a inhibitors as epigenetic modulators for sickle cell disease treatment” (Bioorg Med Chem Lett, 2024).

Each structure is given as a SMILES string. Converted amounts (≈) assume the structure as drawn. The source made the active and inactive calls. The calls are words filed in the database; no cut-off is given here.

The target in data set [1] is T1, Histone-lysine N-methyltransferase EHMT2 (Homo sapiens, UniProt Q96KQ7).
T1 sequence (Q96KQ7 whole entry): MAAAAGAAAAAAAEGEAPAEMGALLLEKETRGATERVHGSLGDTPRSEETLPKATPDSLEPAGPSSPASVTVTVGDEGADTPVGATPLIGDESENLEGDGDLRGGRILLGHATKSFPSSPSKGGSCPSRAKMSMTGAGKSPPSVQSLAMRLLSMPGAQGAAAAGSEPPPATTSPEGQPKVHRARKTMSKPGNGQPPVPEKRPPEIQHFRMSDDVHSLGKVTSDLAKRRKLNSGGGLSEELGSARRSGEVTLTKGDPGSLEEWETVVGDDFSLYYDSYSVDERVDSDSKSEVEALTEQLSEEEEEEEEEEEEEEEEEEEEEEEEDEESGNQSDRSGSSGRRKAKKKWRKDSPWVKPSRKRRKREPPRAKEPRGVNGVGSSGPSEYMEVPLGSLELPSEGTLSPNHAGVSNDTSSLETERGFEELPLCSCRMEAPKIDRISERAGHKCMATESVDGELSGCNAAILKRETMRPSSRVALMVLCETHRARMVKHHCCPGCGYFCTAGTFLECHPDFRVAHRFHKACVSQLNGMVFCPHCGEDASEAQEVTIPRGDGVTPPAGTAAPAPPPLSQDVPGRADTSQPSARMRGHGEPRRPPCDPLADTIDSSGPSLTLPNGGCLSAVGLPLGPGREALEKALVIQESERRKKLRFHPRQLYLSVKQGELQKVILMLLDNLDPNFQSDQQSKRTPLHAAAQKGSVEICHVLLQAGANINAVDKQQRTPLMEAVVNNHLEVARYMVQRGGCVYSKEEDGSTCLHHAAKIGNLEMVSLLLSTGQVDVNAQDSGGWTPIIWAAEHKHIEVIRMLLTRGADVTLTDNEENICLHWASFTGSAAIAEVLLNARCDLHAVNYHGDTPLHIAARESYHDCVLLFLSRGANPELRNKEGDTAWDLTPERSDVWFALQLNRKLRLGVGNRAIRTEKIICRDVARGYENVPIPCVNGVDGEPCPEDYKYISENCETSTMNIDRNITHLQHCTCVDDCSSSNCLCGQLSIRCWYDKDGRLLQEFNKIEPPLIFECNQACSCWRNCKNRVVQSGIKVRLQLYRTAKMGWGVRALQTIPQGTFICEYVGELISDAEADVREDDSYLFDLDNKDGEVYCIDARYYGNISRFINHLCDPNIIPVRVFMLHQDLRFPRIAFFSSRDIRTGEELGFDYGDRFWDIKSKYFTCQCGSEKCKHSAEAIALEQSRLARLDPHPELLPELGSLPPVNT
The data set can be described thus: Inhibition of G9a (unknown origin).

The nature of data set [2]: Permeability of compound by PAMPA. Type of data set: ADME. As to conditions: read-out: permeability. A general note: The PAMPA barrier holds no transporters, so it reflects passive diffusion.
A short description of data set [3]: Aqueous solubility of compound at pH 7.4. Type of data set: physicochemical.
Another data set has as its system HUDEP-2. The data set can be described thus: Induction of gamma-globin mRNA expression in human HUDEP-2 cells assessed as expression shift from adult-type beta-globin to fetal-type gamma-globin upto 1 uM by […] analysis. Type of data set: functional, cell-based.
In data set [4] the target is T1, Histone-lysine N-methyltransferase EHMT2. Briefly: Binding affinity to G9a (unknown origin) assessed as dissociation constant by SPR analysis. (In SPR one partner is held on a chip, and binding of the other changes the refractive index at the surface.)
Data set [5] concerns the target T2, Histone-lysine N-methyltransferase EHMT2 (Homo sapiens) (UniProt Q96KQ7).
T2 sequence (whole entry): T1 sequence (Q96KQ7 whole entry)
The data set can be described thus: Binding affinity to G9a (unknown origin) assessed as binding constant K(on) by SPR analysis.

The nature of data set [6]: Metabolic stability in mouse liver microsomes assessed as compound remaining measured after 60 mins. The format is ADME, Microsome. As to conditions: read-out: Stability. For orientation: Liver microsomes are a subcellular fraction often used to study metabolism.
Data set [7] in a line: Metabolic stability in human liver microsomes assessed as compound remaining measured after 60 mins. Type of data set: ADME, Microsome. As to conditions: read-out: Stability.
Data set [8] in a line: Metabolic stability in human liver microsomes assessed as compound remaining measured after 30 mins. The format is ADME, Microsome. As to conditions: read-out: Stability.
Data set [9] has as its target T2, Histone-lysine N-methyltransferase EHMT2 (Homo sapiens). The data set can be described thus: Binding affinity to G9a (unknown origin) assessed as binding constant K(off) by SPR analysis.
Data set [10] is described as follows: Metabolic stability in mouse liver microsomes assessed as compound remaining measured after 30 mins. Type of data set: ADME, Microsome. As to conditions: read-out: Stability.

Consider `CCCCC(NC(=O)c1[nH]c2c(c1C)C(=O)CC(C)(C)C2)C(=O)Nc1ccc(OCCN(C)C)nc1` (racemic), for which half-maximal inhibition in data set [1] (IC50) was put at 110 nM. Moreover, in [2], the Papp came out at 3.6 ×10⁻⁶ cm/s. Moreover, in [3], the solubility (usually how much of the substance goes into solution per volume) is more than 200 µM.

Regarding `CCCC[C@H](NC(=O)c1[nH]c2c(c1C)C(=O)CC(C)(C)C2)C(=O)Nc1ccc(OC2CCN(C)CC2)cc1`, the IC50 (in general, the point on the concentration scale where inhibition reaches its midpoint) in [1] was 24 nM. Moreover, in the data set on HUDEP-2, the result was Active. Moreover, the Kd – broadly, the constant that tells how readily two partners part at equilibrium – in data set [4] is 120 nM. For the same compound, the values for the K in data set [5] and in data set [9] were 110000 M⁻¹ s⁻¹ and 0.013 s⁻¹, respectively. In addition, the remaining at 1 h in [6] was 58%; in [7], 37%. Also, the remaining at 0.5 h in data set [8] came out at 57%; in [10], 72%. The Papp in [2] amounted to 9.3 ×10⁻⁶ cm/s. In data set [3], this compound came in with a solubility of 200 µM (≈ 105 µg/mL).

`CCCCC(NC(=O)c1[nH]c2c(c1C)C(=O)CC(C)(C)C2)C(=O)Nc1ccc(CN2CCCC2)cc1` (racemic) showed an IC50 in data set [1] of 44 nM. The Papp in [2] worked out at 12.7 ×10⁻⁶ cm/s. Besides, in data set [3], the solubility amounted to 189 µM (≈ 93.1 µg/mL).

In turn, `CCCCC(NC(=O)c1[nH]c2c(c1C)C(=O)CC(C)(C)C2)C(=O)Nc1ccc(CCN2CCCCC2)cc1` (racemic) displayed an IC50 in [1] of 42 nM. In addition, the Papp in [2] is 6.3 ×10⁻⁶ cm/s. In addition, in data set [3], the solubility was 197 µM (≈ 103 µg/mL).

With `CCCC[C@H](NC(=O)c1[nH]c2c(c1C)C(=O)CC(C)(C)C2)C(=O)Nc1ccc(OC2CCN(C)CC2)nc1`, in data set [1], 44 nM corresponded to half-maximal inhibition (IC50). Also, the equilibrium dissociation constant (Kd) in data set [4] stood at 170 nM. The K in [5] is 79000 M⁻¹ s⁻¹; in [9], 0.013 s⁻¹. Besides, the remaining at 1 h in data set [6] worked out at 53%; in data set [7], 62%. In addition, the remaining at 0.5 h stood at 80% in data set [8] and 72% in data set [10]. Further, the Papp in data set [2] was 8.1 ×10⁻⁶ cm/s. Moreover, the solubility in [3] is 200 µM (≈ 105 µg/mL).

Turning to `CCCC[C@H](NC(=O)c1[nH]c2c(c1C)C(=O)CC(C)(C)C2)C(=O)NCc1ccc(CN(C)C)cc1`, in data set [1], the midpoint of inhibition, the IC50, lay at 9 nM. The values for the remaining at 1 h in data set [6] and in [7] were 65% and 30%, respectively. Moreover, the remaining at 0.5 h in data set [8] turned out to be 52%; in data set [10], 78%. Further, the Papp in [2] was 7.2 ×10⁻⁶ cm/s. The compound also yielded a solubility in data set [3] of 201 µM (≈ 96.6 µg/mL).

Consider `CCCCC(NC(=O)c1[nH]c2c(c1C)C(=O)CC(C)(C)C2)C(=O)Nc1cccnc1` (racemic), for which the Papp in [2] amounted to 29 ×10⁻⁶ cm/s. The same compound yielded a solubility in data set [3] of more than 200 µM.

In data set [1], `CCCCC(NC(=O)c1[nH]c2c(c1C)C(=O)CC(C)(C)C2)C(=O)Nc1ccccc1` (racemic) gave an IC50 of 1300 nM. The compound further showed a solubility in data set [3] of 20 µM (≈ 8.19 µg/mL).

As to `CCCCC(NC(=O)c1[nH]c2c(c1C)C(=O)CC(C)(C)C2)C(=O)Nc1ccc(CCN2CCOCC2)cc1` (racemic), inhibition in data set [1] was half-maximal at 1000 nM (IC50). The solubility in data set [3] amounted to 14 µM (≈ 7.32 µg/mL).

`CCCCC(NC(=O)c1[nH]c2c(c1C)C(=O)CC(C)(C)C2)C(=O)Nc1ccc(CCN2CCS(=O)(=O)CC2)cc1` (racemic) returned a half-inhibitory concentration (IC50) in data set [1] of 2800 nM. The Papp in data set [2] turned out to be 2.12 ×10⁻⁶ cm/s. The solubility in data set [3] is 37 µM (≈ 21.1 µg/mL).

For `CCCCC(NC(=O)c1[nH]c2c(c1C)C(=O)CC(C)(C)C2)C(=O)NCc1ccc(CN(C)C)cc1` (racemic), the midpoint of inhibition in data set [1], the IC50, lay at 12 nM. The Papp in data set [2] turned out to be 9.5 ×10⁻⁶ cm/s. Besides, the solubility in data set [3] was more than 200 µM.

As to `CCCCC(NC(=O)c1[nH]c2c(c1C)C(=O)CC(C)(C)C2)C(=O)Nc1ccc(CN(C)C)cc1` (racemic), the IC50 in data set [1] was 42 nM.

`Cc1c(C(=O)N[C@@H](CCC2CC2)C(=O)Nc2ccc(C#N)cc2)[nH]c2c1C(=O)CC(C)(C)C2`: the Kd in data set [4] came to 750 nM. In addition, the figures for the K in [5] and in [9] were 16000 M⁻¹ s⁻¹ and 0.012 s⁻¹, respectively.

In [1], `CCCCC(NC(=O)c1[nH]c2c(c1C)C(=O)CC(C)(C)C2)C(=O)Nc1ccc(CCN2CCC(F)(F)CC2)cc1` (racemic) gave a concentration for half-maximal inhibition (IC50) of 1600 nM. In data set [3], this compound returned a solubility of 2.3 µM (≈ 1.28 µg/mL).

`CCCCC(NC(=O)c1[nH]c2c(c1C)C(=O)CC(C)(C)C2)C(=O)Nc1ccc(OCCNC)nc1` (racemic) displayed an IC50 in data set [1] of 59 nM. Besides, in data set [2], the Papp worked out at 0.07 ×10⁻⁶ cm/s. In addition, the solubility in [3] was more than 200 µM.

Take `CCCCC(NC(=O)c1[nH]c2c(c1C)C(=O)CC(C)(C)C2)C(=O)Nc1ccc(OC2CCN(C)CC2)cc1` (racemic): in [1], half-maximal inhibition (IC50) was put at 22 nM. In addition, the Papp in [2] was 5.9 ×10⁻⁶ cm/s. Also, the concentration in solution in data set [3] (solubility) came to 192 µM (≈ 100 µg/mL).

With `CCCC[C@H](NC(=O)c1[nH]c2c(c1C)C(=O)CC(C)(C)C2)C(=O)Nc1ccccc1`, the remaining at 1 h in [6] came to 1.1%; in data set [7], 10%. In addition, the values for the remaining at 0.5 h in [8] and in data set [10] were 22% and 11%, respectively. The Papp in [2] was found to be 35.9 ×10⁻⁶ cm/s. Further, the concentration in solution in data set [3] (solubility) came to 7 µM (≈ 2.87 µg/mL).

The compound `CCCCC(NC(=O)c1[nH]c2c(c1C)C(=O)CC(C)(C)C2)C(=O)Nc1ccc(OCCN)nc1` (racemic) displayed an IC50 in [1] of 74 nM. For the same compound, the Papp in [2] was found to be 0.4 ×10⁻⁶ cm/s. In addition, the solubility in data set [3] is more than 200 µM.

On to `CCCCC(NC(=O)c1[nH]c2c(c1C)C(=O)CC(C)(C)C2)C(=O)Nc1ccc(OC2CCN(C)CC2)nc1` (racemic), for which the IC50 in [1] amounted to 65 nM. Also, the Papp in [2] worked out at 4.9 ×10⁻⁶ cm/s. Also, the solubility in data set [3] was more than 200 µM.

Take `CCCCC(NC(=O)c1[nH]c2c(c1C)C(=O)CC(C)(C)C2)C(=O)NCc1ccccc1` (racemic): inhibition in data set [1] was half-maximal at 330 nM (IC50). The compound also returned a solubility in data set [3] of 2.5 µM (≈ 1.06 µg/mL).

As to `CCCCC(NC(=O)c1[nH]c2c(c1C)C(=O)CC(C)(C)C2)C(=O)Nc1ccc(CN2CCC(F)(F)CC2)cc1` (racemic), in [1], the IC50 was found to be 930 nM. Moreover, the solubility in [3] turned out to be 5.7 µM (≈ 3.09 µg/mL).
